Where “and” joins values, the source holds several entries; their conditions need not be identical. Identical values can stand only once.
Key:
[1] = system: SE03; test: Real-time ethidium bromide accumulation assay (efflux pump inhibition); format: cell-based, Salmonella enterica serovar Typhimurium SL1344; settings: compounds 50 µM (compound 12 at 17 µM), CCCP 25 µM, minute 60, EB 1 µg/mL
Method: (§1) The relative fluorescence index (RFI) was calculated based on the means of relative fluorescence units, and theses RFIs are depicted in Table 4.
(§2) The compounds were evaluated for their ability to inhibit the efflux of EB, an efflux pump substrate, in Salmonella enterica serovar Typhimurium SE03 and S. aureus 272123 strains, through real-time fluorimetry, monitoring the intracellular accumulation of EB, an efflux pump substrate. This was determined by the automated method using a CLARIOstar Plus plate reader (BMG Labtech, Ortenberg, Germany). Reserpine and CCCP were applied at 25 µM as positive controls, and the solvent DMSO was applied at 1% v/v. The bacterial strains were incubated in an appropriate culture media (TSB–S. aureus 272123; LB-B–SE03) at 37 °C until they reached an optical density (OD) of 0.6 at 600 nm. The culture was centrifuged at 13,000× g for 3 min, and the pellet was washed and resuspended with phosphate buffered saline (PBS, pH 7.4). The suspension was centrifuged again in the same conditions and resuspended in PBS.
(§3) Then, 50 µL of this solution were transferred into a 96-well black microtiter plate (Greiner Bio-One Hungary Kft, Mosonmagyaróvár, Fertősor, Hungary), and 50 µL of bacterial suspension (OD600 = 0.6) were added to each well. The plates were placed into the CLARIOstar plate reader, and the fluorescence was monitored at excitation and emission wavelengths of 530 nm and 600 nm, respectively, every minute for one hour on a real-time basis. From the real-time data, the activity of the compounds, namely the relative fluorescence index (RFI) of the last time point (minute 60) of the EB accumulation assay, was calculated according to the following equation:(1) RFI=RFtreated−RFuntreated/RFuntreated where RFtreated is the relative fluorescence (RF) at the last time point of EB accumulation curve in the presence of the compound, and RFuntreated is the RF at the last time point of the EB accumulation curve of the untreated control, having only the solvent (DMSO) control. The accumulation curves were designed using Microsoft Excel®. The samples were tested in triplicate, and the RFI presented comes from the average of these three values. The accumulation graphs present the mean of the RF at the last time point. The standard deviation (SD) was calculated automatically and included in the RF graphs.

[2] = system: E. coli SA/2; test: Synergy with cefotaxime (antibiotic MIC in presence of compound); format: cell-based
Text: (§4) The referred library of thioxanthones was initially tested for their antimicrobial activity against six bacterial strains: the Gram-negative Escherichia coli ATCC 25922, Pseudomonas aeruginosa ATCC 27853 and Salmonella enterica serovar Typhimurium SL1344 (SE03), with the acrA gene deleted, and the Gram-positive Staphylococcus aureus ATCC 29213, Enterococcus faecalis ATCC 29212 and the methicillin and ofloxacin-resistant clinical isolate S. aureus 272123. For the synergy assay, two clinically relevant isolates were used: the extended-spectrum β-lactamase (ESBL)-producing E. coli SA/2 [23] and the vancomycin-resistant E. faecalis (VRE) B3/101 [23]. The antibiotics used were cefotaxime (CTX) and vancomycin (VAN), respectively.
The combined effect of the compounds and clinically relevant antimicrobial drugs was evaluated by determining the antibiotic’s MIC in the presence of each compound. […] The antibiotic tested was serially diluted, whereas the concentration of each compound was kept fixed. […]

[3] = system: S. marcescens; test: Quorum sensing inhibition assay (pigment production); format: cell-based, Serratia marcescens AS-1; settings: Serratia marcescens, read-out: Quorum Sensing Inhibition (mm) ± SD
Method: (§5) Concerning the QS inhibition assay, the sensor strain Chromobacterium violaceum CV026 and the AHL producer strain Sphingomonas paucimobilis Ezf 10-17 (EZF) were inoculated as parallel lines, and the AHL producers Chromobacterium violaceum wild-type 85 (wt85) and Serratia marcescens AS-1 were inoculated as a single line. The interaction between the strains and compounds 2–18 was evaluated as the reduction of pigment production, in millimeters (mm) (Table 5) with promethazine (PMZ) as a positive control.
(§6) The QS inhibitory effect of the compounds was examined on the EZF and the sensor CV026 strains, on the wt85 strain, and on S. marcescens. The method used was the parallel inoculation method, where pair combinations of the used sensor strain CV026 and the N-acyl-homoserine lactone (AHL) producing strain EZF were inoculated directly onto the LB*-A agar surface in parallel, at an approximate distance of 5 mm from each other. S. marcescens AS-1 and wt85 were inoculated as a single line. Filter paper disks (7 mm in diameter) were placed on the center of the inoculated line(s) and impregnated with 8 µL of a solution of 10 mM of the compounds. […] The agar plates were incubated at room temperature (20 °C) for 24−48 h. The QS inhibition was accessed visually, through the inhibition of pigment production. The discolored, but intact, bacterial colonies were measured with a ruler.

[4] = system: S. aureus ATCC 29213; test: Inhibition of biofilm formation (crystal violet); format: cell-based; settings: Staphylococcus aureus, ATCC29213, 48 h, S. aureus ATCC 29213, compounds 100 µM (compound 12 at 50 µM), read-out: Biofilm Inhibition (%) ± SD
[5] = system: S. aureus 272123; test: Antibacterial activity, broth microdilution MIC; format: cell-based; settings: Staphylococcus aureus, 272123, read-out: Minimum Inhibitory Concentration (MIC)
Text: as §4
(§7) The minimum inhibitory concentration (MIC) for each compound was determined by broth microdilution method in a 96-well plate according to the Clinical and Laboratory Standard Institute (CLSI) guidelines. The medium used was MHB II. The concentrations tested ranged from 100 µM to 0.195 µM and were prepared from a stock solution of 10 mM in DMSO, for S. aureus 272123 and SE03; for the other strains, the concentrations tested ranged from 64 µg/mL to 4 µg/mL and were prepared from a stock solution of 10 mg/mL in DMSO. DMSO was used in subinhibitory concentrations (1% v/v). The MIC was determined by visual inspection.

[6] = system: S. aureus 272123; test: Inhibition of biofilm formation (crystal violet); format: cell-based, Staphylococcus aureus; settings: Staphylococcus aureus; S. aureus 272123; compounds 100 µM (compound 12 at 50 µM); 48 h; read-out: Biofilm Inhibition (%) ± SD
Method: Efflux mechanisms are one of the factors that can lead to biofilm-mediated resistance, along with slow growth and reduced penetration due to production of extracellular polysaccharides. […] Additionally, they can also modulate QS, through an influence in the transport of QS signal molecules. Thioxanthones 2–18 were tested for their potential for inhibiting biofilm formation by S. aureus ATCC 29213 and the multi-resistant S. aureus 272123. The biofilm inhibition, presented in percentage (%), was calculated based on the mean of absorbance units. Reserpine, which has previously been described as both an efflux pump inhibitor and an inhibitor of biofilm formation in Gram-positive bacteria was used as control in both strains.
The thioxanthone derivatives were tested for their ability to decrease the formation of biofilm. The bacterial strains used were the Gram-positive S. aureus […] and S. aureus 272123. The detection of the biofilm formation was carried out using the dye crystal violet (CV; 0.1% v/v). The initial inoculum was incubated in TSB overnight, and then diluted to an OD600 of 0.1. […] This meant that compound 12 was added at 50 µM, while the rest of the compounds were added at the concentration of 100 µM. The final volume in each well was 200 µL. Reserpine was used as a positive control, as it was the same compound used in the efflux pump inhibition assay and it has shown activity in the inhibition of biofilm formation in S. aureus strains. The plates were incubated at 30 °C for 48 h, with gentle stirring (100 rpm). After this incubation period, the TSB medium was discarded, and the plates were washed with tap water to remove unattached cells. Afterwards, 200 µL of a 0.1% v/v CV solution were added to the wells and incubated for 15 min at room temperature. Then, the CV solution was removed from the wells, and the plates were washed again with tap water, and 200 µL of a 70% ethanol solution was added to the wells. The biofilm formation was determined by measuring the OD600 using a Multiscan EX ELISA plate reader (Thermo Labsystems, Cheshire, WA, USA). The anti-biofilm effect of the compounds was expressed in the percentage (%) of decrease of biofilm formation.

[7] = system: wt85; test: Quorum sensing inhibition assay (pigment production); format: cell-based, Chromobacterium violaceum wild-type 85; settings: Chromobacterium violaceum, read-out: Quorum Sensing Inhibition (mm) ± SD
Method: as §5, §6

[8] = system: SE03; test: Antibacterial activity, broth microdilution MIC; format: cell-based, Salmonella enterica serovar Typhimurium SL1344; settings: Salmonella enterica, read-out: Minimum Inhibitory Concentration (MIC)
Text: as §4, §7

[9] = system: EZF + CV026; test: Quorum sensing inhibition assay (pigment production), parallel inoculation; format: cell-based; settings: disk with 8 µL of 10 mM solution, read-out: Quorum Sensing Inhibition (mm) ± SD
Method: as §5, §6

[10] = system: S. aureus 272123; test: Real-time ethidium bromide accumulation assay (efflux pump inhibition); format: cell-based, Staphylococcus aureus; parameters: key: RFI = (RFtreated − RFuntreated)/RFuntreated at minute 60; settings: compounds 50 µM, reserpine 25 µM, minute 60, EB 1 µg/mL
Method: as §1, §2, §3

[11] = Cytotoxicity in NIH/3T3 cell line (MTT assay); format: cell-based; settings: mouse, NIH/3T3 mouse fibroblast cells, read-out: IC50 (µM) ± SD, cytotoxicity
Method: Before each cytotoxicity assay using this cell line, cells were seeded in untreated 96-well flat-bottom microtiter plates, following a 4-hour incubation period in a humidified atmosphere (5% CO2, 95% air) at 37 °C [47]. […] Prior to the assay, the cells were seeded for 4 h using 1 × 10^4 cells/well. […] The plates were incubated for 24 h, after which a solution of MTT in PBS was added to each well and incubated for another 4 h. After this, 100 μL of SDS (10% in a 0.01 M HCl solution) was added to each well and incubated overnight at 37 °C. Doxorubicin was used as a positive control. Cell growth was determined in quadruplicate by measuring OD at λ = 540 nm (reference 630 nm) in a Multiscan EX ELISA reader (Thermo Labsystems, Cheshire, WA, USA). […] (2) 100−ODsample−ODmedium control/ODcell control−ODmedium control×100 […]

Compound: N#CC(C#N)=NNc1cccc(Cl)c1 [CCCP, carbonyl cyanide 3-chlorophenylhydrazone, reference compound]
- RFI ± SD [1]: 0.23 ± 0.04

Compound: CO/N=C(\C(=O)N[C@@H]1C(=O)N2C(C(=O)O)=C(COC(C)=O)CS[C@H]12)c1csc(N)n1 [CTX, cefotaxime, reference compound]
- CTX MIC (antibiotic alone) [2]: 1124 µM and 512 µg/mL

Compound: CCCOc1ccc(OC)c2c(=O)c3ccccc3sc12 [Compound 4]
- zone of inhibition at 10000 µM [3]: 0 mm
- inhibition at 100 µM [4]: 0.17 ± 0.83%
- MIC [5]: > 100 µM
- inhibition at 100 µM [6]: 47.9 ± 1.08%
- zone of inhibition at 10000 µM [7]: 0 mm
- MIC [8]: > 100 µM
- zone of inhibition at 10000 µM [9]: 0 mm
- RFI ± SD [1]: −0.10 ± 0.05
- RFI ± SD [10]: 0.11 ± 0.26

Compound: CCCOc1ccc(NCCc2nc3ccccc3[nH]2)c2c(=O)c3ccccc3sc12 [Compound 5]
- zone of inhibition at 10000 µM [3]: 0 mm
- inhibition at 100 µM [4]: 0.37 ± 0.47%
- MIC [5]: > 100 µM
- inhibition at 100 µM [6]: 0%
- zone of inhibition at 10000 µM [7]: 0 mm
- MIC [8]: > 100 µM
- zone of inhibition at 10000 µM [9]: 0 mm
- RFI ± SD [1]: −0.20 ± 0.01
- RFI ± SD [10]: −0.13 ± 0.04

Compound: CCCOc1ccc(NCCc2ccc([N+](=O)[O-])cc2)c2c(=O)c3ccccc3sc12 [Compound 6]
- zone of inhibition at 10000 µM [3]: 0 mm
- inhibition at 100 µM [4]: 0%
- MIC [5]: > 100 µM
- inhibition at 100 µM [6]: 0%
- zone of inhibition at 10000 µM [7]: 0 mm
- MIC [8]: > 100 µM
- zone of inhibition at 10000 µM [9]: 0 mm
- RFI ± SD [1]: −0.20 ± 0.01
- RFI ± SD [10]: 0.09 ± 0.11

Compound: CCCOc1ccc(N2CCN(C(C)=O)CC2)c2c(=O)c3ccccc3sc12 [Compound 7]
- zone of inhibition at 10000 µM [3]: 0 mm
- inhibition at 100 µM [4]: 0%
- MIC [5]: > 100 µM
- inhibition at 100 µM [6]: 47.1 ± 7.54%
- zone of inhibition at 10000 µM [7]: 0 mm
- MIC [8]: > 100 µM
- zone of inhibition at 10000 µM [9]: 30 ± 0.5 mm
- RFI ± SD [1]: 0.49 ± 0.11
- RFI ± SD [10]: −0.10 ± 0.02

Compound: COc1cccc2c1C(=O)c1c(O)c3c(c(O)c1C2=O)C[C@@](O)(C(=O)CO)C[C@@H]3O[C@H]1C[C@H](N)[C@H](O)[C@H](C)O1 [Doxorubicin, doxorubicin, reference compound]
- IC50 at 24 h [11]: 12.1 ± 0.81 µM

Compound: CC(CN1c2ccccc2Sc2ccccc21)N(C)C (centres unmarked) [PMZ, promethazine, reference compound]
- zone of inhibition at 10000 µM [3]: 18 ± 0.8 mm
- zone of inhibition at 10000 µM [7]: 40 ± 0.1 mm
- zone of inhibition at 10000 µM [9]: 41 ± 0.5 mm

Compound: COC(=O)[C@H]1[C@H]2C[C@@H]3c4[nH]c5cc(OC)ccc5c4CCN3C[C@H]2C[C@@H](OC(=O)c2cc(OC)c(OC)c(OC)c2)[C@@H]1OC [Reserpine, reserpine, reference compound]
- inhibition at 100 µM [4]: 30.4%
- RFI ± SD [10]: 0.50 ± 0.04
